Tests used:
small mesentery arteries = assay: Artery wire myography, small mesentery arteries; parameters: species or system pig
Excerpt: (§1) Eighteen representative segments of small mesentery arteries and coronary arteries (250–350 μm in diameter) from 4 blood-donor pigs were studied by wire myography for contractile responses to TB4 in vitro. Samples were excised rapidly and placed in ice-cold oxygenated Krebs solution. The composition of the Krebs solution was as follows (in mM): 119 NaCl, 4.7 KCl, 25 NaHCO3, 1.2 NaH2PO4, 2.5 CaCl2, 1.2 MgSO4, and 5.5 glucose. Arterial rings (2 mm in length) were mounted using 40 μm wires in a microvessel myograph (Danish Myograph Technologies, Aarhus, Denmark) for isometric tension recordings. After mounting, vessels were equilibrated, normalized and contracted repeatedly with 62 mM potassium chloride until maximal and reproducible contractions were obtained. To examine the contracting effects of TB4, dose-response curves to TB4 (10-8-10-2 M) were constructed and compared to KCl-induced contraction. Relaxation was studied in thromboxane (TXA2) precontracted arterial rings. The precontraction was adjusted to 20–40% of the reference contraction to 62 mM KCl, which after cumulative concentrations of TB4 was added to the organ bath. To evaluate the role of NO on the effects of TB4 induced vasodilation, experiments were repeated in arteries incubated with L-NNA, a NO synthase inhibitor (100 μM, 30 min). Data were collected and analyzed using Powerlab and Chart5 softwares (ADI Instruments, Colorado Springs, CO, USA).

coronary arteries = assay: Artery wire myography, coronary arteries; parameters: species or system pig
Excerpt: as §1

citrated whole blood = assay: Rotem thromboelastometry in vitro (EXTEM, INTEM, FIBTEM); parameters: species or system pig; settings: for maximum clot firmness, FIBTEM: 1 h room temperature, platelets inhibited, three animals, mean ± SD
Method: Rotem®thromboelastometry (Tem Innovations GmbH, Basel, Switzerland) analysis was performed in vitro on blood samples from three blood-donor animals. TB4 was added to citrated whole blood to achieve two different concentrations (0.1 mM and 1 mM) and incubated at room temperature for 1 h. Untreated blood samples served as controls. The samples were analyzed and three parameters were drawn from the results at 60 min: Maximum clot firmness (stability of the blood clot), clotting time (time to clot formation), and maximum lysis of the blood clot. Assays used were EXTEM, INTEM, and FIBTEM. EXTEM measures the activity of the extrinsic pathway with tissue factor activation and INTEM of the intrinsic pathway with contact activation. FIBTEM is used for the assessment of fibrinogen status by complete platelet inhibition.

[1] = system: global myocardial ischemia-reperfusion injury; assay: Cardiomyocyte apoptosis by TUNEL after CPB and aortic cross-clamping; format: in vivo; settings: pig; TB4 6 mg/kg i.v. twice; 30 h post-reperfusion; mean ± SD; p = 0.20 vs other group
Method: (§2) The lung was displaced and the pericardium opened. […] Blood lactate levels were monitored to ensure adequate perfusion. […] After weaning, the animals were decannulated. […] The thoracotomy wound was closed in three layers.
Transmural tissue samples from the left and right ventricles were collected and fixed in formalin. Hematoxylin and eosin staining was performed for general histological analysis. Cardiomyocyte apoptosis was determined by terminal transferase nick end-labeling assay (TUNEL) as previously described ([Gavrieli et al., 1992]; [Saraste et al., 1997]). Positive apoptotic nuclei were counted over an ocular grid and presented as a percentage of total cardiomyocyte number in 10 randomly selected microscopic visual high power (×40) fields by an investigator blinded to group assignments.

[2] = system: global myocardial ischemia-reperfusion injury; assay: Cardiac 15O-water PET, myocardial blood flow; format: in vivo; settings: pig; 25 h post-reperfusion; n = 4; mean ± SD; p = 0.86 vs control
Method: as §2
The pigs underwent cardiac PET scans 25–26 h post-reperfusion to determine MBF during rest and adenosine stress. PET studies were performed with ECAT EXACT HR+ scanner (Siemens-CTI, Knoxville, TN, USA). Myocardial perfusion was evaluated by PET with ^15O-radiolabeled water (808 ± 129 MBq) both at rest and during intravenous adenosine stress (200 μg/kg/min). The acquisition frames were as follows: 14 × 5 s, 3 × 10 s, 3 × 20 s, and 4 × 30 s (total duration 4 min 40 s). The acquired PET data were reconstructed in 2D mode with an iterative reconstruction algorithm OSEM using six iteration and 16 subsets in the reconstruction. The transaxial field of view (35 cm) was reconstructed in a 128 × 128 matrix, yielding a pixel size of 2.57 mm × 2.57 mm. The measurements were corrected for scatter, random counts, and dead time. The device produces 63 axial planes with a slice thickness of 2.43 mm. Global myocardial perfusion (ml/g/min) was measured using Carimas 2 software (Turku PET Centre, Turku, Finland^1).

[3] = system: global myocardial ischemia-reperfusion injury; format: in vivo, pig
Method: The lung was displaced and the pericardium opened. […] Blood lactate levels were monitored to ensure adequate perfusion. […] After weaning, the animals were decannulated. […] The thoracotomy wound was closed in three layers. […] MRI study was performed at 1.5 T system (Philips GyroscanIntera Nova Dual MR, Philips Medical Systems, Best, The Netherlands) with a phased-array torso coil and a vector cardiographic method for ECG-gating. All acquisitions were obtained during short breath hold periods. Each MRI study consisted of cine imaging of both ventricles for volumetrics and wall motion at rest. Late enhancement (LE) imaging was applied for scar assessment. […] A phase-sensitive inversion recovery T1-TFE pulse sequence was applied for LE imaging 10 min after injecting gadoterate meglumine (Dotarem 279.3 mg/mL, Guerbet, Roissy CdG, France) with a dose 0.3 mmol/kg. The following imaging parameters were used: prospective gating, TR/TE 4.0/1.2 ms, flip angle 15°, acquisition matrix 168 × 256, reconstruction matrix 256 × 256, FOV 320-360 mm, rFOV 100%, 8-15 slices/breath hold, slice thickness 6 mm, and gap 0 mm. TI was optimized individually using a TI-scout sequence. The whole LV was covered by LE images at SA orientation.

[4] = Completion of the 30 h follow-up period; format: in vivo, pig; settings: TB4 treatment group n = 6; one died after weaning from CPB (bradycardia), one 20 h after reperfusion (circulatory failure)
Excerpt: Ten landrace pigs weighing 29–43 kg were operated on and divided into a TB4 treatment group (n = 6) and a control group (n = 4). All animal experiments were approved by the Laboratory Animal Care & Use Committee of the State Provincial Office of Southern Finland.
as §2

[5] = system: global myocardial ischemia-reperfusion injury; settings: pig, TB4 6 mg/kg i.v. twice, n = 4, mean ± SD
Method: The pigs were pre-anesthetized with an intramuscular injection of 100 mg xylazin (Rompun vet, Bayer Animal Health GmbH, Leverkusen, Germany) and 25 mg midazolam (Midazolam Hameln, Hameln pharmaceuticals GmbH, Hameln, Germany). A peripheral ear vein was cannulated and the animals were medicated with 20 mg boluses of propofol (PropofolLipuro, B. Braun Melsungen AG, Melsungen, Germany) and 150 μg phentanyl (Fentanyl-Hameln, Hameln pharmaceuticals GmbH, Hameln, Germany) and were then intubated and connected to a respirator (Dräger Oxylog 3000, Drägerwerk AG, Lübeck, Germany). The respiratory rate was set to 18–22 times/min with a tidal volume of 8–10 ml/kg using 40% oxygen. Blood gases were monitored to ensure adequate ventilation (i-STAT, Abbott Laboratories, Abbott Park, IL, USA). Anesthesia was maintained with a continuous infusion of propofol 15–30 mg/kg/h, phentanyl 1.5 μg/kg/h and midazolam 100 μg/kg/h. Preoperatively and every 8 h thereafter the animals received antibiotic prophylaxis (Cefuroxime 750 mg, Orion Pharma, Espoo, Finland). Before the heart was cannulated 10000 IU of heparin (Heparin, LEO Pharma, Ballerup, Denmark) was given as a bolus and the dose was repeated every 30 min during extracorporeal circulation. […]
The pigs were placed in a left lateral decubitus position and the chest was shaved and disinfected. […] Blood lactate levels were monitored to ensure adequate perfusion. […]

[6] = after intraperitoneal administration; ref Mora et al., 1997; cited from earlier work
Method: The preferred dosing range of TB4 seems to be 2–12 mg/kg both when using single and repeated strategies. […] We wanted to condition the heart before the operation and also affect the immediate post-operative reperfusion period and gave the animals two doses of TB4. Under physiological conditions, concentrations of the peptide in plasma and se ...

[7] = statement in discussion; ref Cierniewski et al., 2012; cited from earlier work
Excerpt: Thymosin beta 4 is normally found in the cytosol and also in the nucleus of cells but lacks a signal sequence for exocytosis. It is unclear whether the high concentrations found in extracellular fluids, is due to active secretion of the peptide or secondary to degranulation of inflammatory cells or cell membrane rupture ([Watts et al., 1990]; [Huff et al., 2001]). TB4 is water soluble and rapidly internalized by endothelial cells in vitro where it binds to actin and participates in the dynamics of the cytoskeleton ([Cierniewski et al., 2012]). At very high concentrations there is also some bin ...

[8] = Serum TB4 concentration by EIA after intravenous infusion; settings: pig, 6 mg/kg
Method: The pigs were pre-anesthetized with an intramuscular injection of 100 mg xylazin (Rompun vet, Bayer Animal Health GmbH, Leverkusen, Germany) and 25 mg midazolam (Midazolam Hameln, Hameln pharmaceuticals GmbH, Hameln, Germany). A peripheral ear vein was cannulated and the animals were medicated with 20 mg boluses of propofol (PropofolLipuro, B. Braun Melsungen AG, Melsungen, Germany) and 150 μg phentanyl (Fentanyl-Hameln, Hameln pharmaceuticals GmbH, Hameln, Germany) and were then intubated and connected to a respirator (Dräger Oxylog 3000, Drägerwerk AG, Lübeck, Germany). […] Anesthesia was maintained with a continuous infusion of propofol 15–30 mg/kg/h, phentanyl 1.5 μg/kg/h and midazolam 100 μg/kg/h. […] TB4 (supplied by RegeneRx Biopharmaceuticals Inc, Rockville, MD, USA) was suspended in sterile water to a concentration of 4 mg/ml (0.82 mM) and administered 6 mg/kg through a 15 min intravenous infusion 30 min before the start of the operation and 6 h later.
Serial serum samples were collected from two animals in both groups for pharmacokinetic studies of TB4 by EIA. The serum was prepared and analyzed as parallel samples according to the manufacturers’ manual (Thymosin β4 EIA Kit, Immundiagnostik AG, Bensheim, Germany). A coefficient of variation (calculated as: sample SD/sample mean) of less than 50% between parallel samples was accepted for final analysis.

[9] = TB4 0.1 mM and 1 mM in whole blood

CC[C@H](C)[C@H](NC(=O)[C@H](CCC(=O)O)NC(=O)[C@H](C)NC(=O)[C@H](CCSC)NC(=O)[C@H](CC(=O)O)NC(=O)[C@@H]1CCCN1C(=O)[C@H](CCCCN)NC(=O)[C@H](CC(=O)O)NC(=O)[C@H](CO)NC(C)=O)C(=O)N[C@@H](CCC(=O)O)C(=O)N[C@@H](CCCCN)C(=O)N[C@@H](Cc1ccccc1)C(=O)N[C@@H](CC(=O)O)C(=O)N[C@@H](CCCCN)C(=O)N[C@@H](CO)C(=O)N[C@@H](CCCCN)C(=O)N[C@@H](CC(C)C)C(=O)N[C@@H](CCCCN)C(=O)N[C@@H](CCCCN)C(=O)N[C@H](C(=O)N[C@@H](CCC(=O)O)C(=O)N[C@H](C(=O)N[C@@H](CCC(N)=O)C(=O)N[C@@H](CCC(=O)O)C(=O)N[C@@H](CCCCN)C(=O)N[C@@H](CC(N)=O)C(=O)N1CCC[C@H]1C(=O)N[C@@H](CC(C)C)C(=O)N1CCC[C@H]1C(=O)N[C@@H](CO)C(=O)N[C@@H](CCCCN)C(=O)N[C@@H](CCC(=O)O)C(=O)N[C@H](C(=O)N[C@H](C(=O)N[C@@H](CCC(=O)O)C(=O)N[C@@H](CCC(N)=O)C(=O)N[C@@H](CCC(=O)O)C(=O)N[C@@H](CCCCN)C(=O)N[C@@H](CCC(N)=O)C(=O)N[C@@H](C)C(=O)NCC(=O)N[C@@H](CCC(=O)O)C(=O)N[C@@H](CO)C(=O)O)[C@@H](C)CC)[C@@H](C)O)[C@@H](C)O)[C@@H](C)O [TB4, Thymosin beta 4]
vasodilatation in mesenteric arteries (small mesentery arteries; TXA2 precontracted arterial rings, cumulative TB4 concentrations): did not, however, induce vasodilatation | contractile response, % of maximum potassium chloride stimulation (small mesentery arteries; mesenteric arteries, TB4 0.1–1 mM, reference 62 mM KCl, arteries from four animals): 15–30% | influence on vasoconstriction or vasodilation at physiological concentrations (small mesentery arteries; physiological concentrations of TB4, mesentery and coronary arteries): did not observe any influence | relaxation of coronary arteries (coronary arteries; TXA2 precontracted porcine coronary rings, TB4 alone): modest endothelium-dependent relaxation | relaxation of coronary arteries with nitric oxide synthase inhibitor (coronary arteries; arteries incubated with L-NNA 100 μM, 30 min): abolished | vasoconstriction in coronary arteries (coronary arteries; dose-response to TB4 compared to KCl-induced contraction): nor did it induce vasoconstriction | blood clotting time (citrated whole blood; [9]): did not have an effect | maximal blood clot fibrinolysis (citrated whole blood; [9]): did not have an effect | maximum clot firmness, FIBTEM (citrated whole blood; TB4 0.1 mM in citrated whole blood): 37.3 ± 5.9 mm | maximum clot firmness, FIBTEM (citrated whole blood; TB4 1 mM in citrated whole blood): 27.7 ± 4.2 mm | TUNEL-positive apoptotic cells, right ventricle [1]: 0.94 ± 0.33% | global myocardial blood flow during rest [2]: 1.92 ± 0.38 mL/g/min | gadolinium contrast uptake on late-enhancement scans ([3]; 28 h post-reperfusion, any of the animals): No uptake of gadolinium contrast was observed | valvular abnormalities on cardiac MRI ([3]; pig, in vivo): One animal in the TB4 group had mild tricuspid valve regurgitation | left ventricle ejection fraction ([3]; pig, 28 h post-reperfusion, n = 4, mean ± SD, p = 0.45 vs control): 61.9 ± 10.6% | LVESV ([3]; pig, 28 h post-reperfusion, n = 4, mean ± SD, p = 0.49): 23.3 ± 8.7 mL | LVEDV ([3]; pig, 28 h post-reperfusion, n = 4, mean ± SD, p = 0.58): 60.1 ± 6.8 mL | animals not completing the follow-up period [4]: two animals did not complete the follow-up period | cTnT plasma concentration 6 h post-reperfusion ([5]; p = 0.27): 437 ± 291 ng/L | cTnT plasma concentration 24 h post-reperfusion ([5]; p = 0.55): 305 ± 75 ng/L | time of maximal tissue concentration in heart [6]: 2 h | solubility in water [7]: water soluble | level at time molar at 0.25 h [8]: 960 nM | level at time molar at 1 h [8]: 1250 nM

Reference: PMC4853610, “Systemic Dosing of Thymosin Beta 4 before and after Ischemia Does Not Attenuate Global Myocardial Ischemia-Reperfusion Injury in Pigs” (Frontiers in Pharmacology, 2016)
